This is an account of results in article PMC9494668 (ACS Omega, 2022).

Assay [1] concerns MCF7 human breast cancer cell line. Description: MTT cytotoxicity, MCF7. It counts as cell-based. The note with it: MCF7, 48 h, read-out: Anticancer activity IC50, MCF7.
For assay [2], the system named is C26 colon carcinoma cell line. Description: MTT cytotoxicity, C26. It counts as cell-based. The note with it: 48 h, read-out: Anticancer activity IC50, C26.
The subject of assay [3] is HepG2 human hepatocyte carcinoma cell line. Description: MTT cytotoxicity, HepG2. It counts as cell-based. The note with it: HepG2, 48 h, read-out: Anticancer activity IC50, HepG2.
Assay [4] relates to Aspergillus niger ATCC 16404. Description: microbe, parasite or virus in culture. It counts as cell-based.
The subject of assay [5] is methicillin-susceptible strains of Staphylococcus aureus ATCC 29213. The assay can be described thus: Microtitre broth dilution MIC, MSSA. It counts as cell-based. Conditions: ATCC29213|MSSA, read-out: MIC, MSSA. (Dilution methods test growth across graded concentrations, often in twofold steps.)
For assay [6], the system named is Escherichia coli ATCC 25922. The assay can be described thus: Microtitre broth dilution MIC, Escherichia coli. It counts as cell-based. The note with it: ATCC25922, read-out: MIC, EC.
The test system of assay [7] is Candida albicans ATCC 10321. Description: microbe, parasite or virus in culture. It counts as cell-based.
Assay [8] has as its system methicillin-resistant strains of Staphylococcus aureus ATCC 43300. The assay can be described thus: Microtitre broth dilution MIC, MRSA. It counts as cell-based. Conditions: ATCC43300|MRSA, read-out: MIC, MRSA.
Assay [9] concerns Salmonella enterica ATCC 10428. Description: Microtitre broth dilution MIC, Salmonella enterica. It counts as cell-based. Conditions: ATCC10428, read-out: MIC, SE.
The subject of assay [10] is Pseudomonas aeruginosa ATCC 27853. The assay can be described thus: Microtitre broth dilution MIC, Pseudomonas aeruginosa. It counts as cell-based. The note with it: ATCC27853, read-out: MIC, PA.
For assay [11], the system named is Streptococcus faecalis ATCC 29212. The assay can be described thus: Microtitre broth dilution MIC, Streptococcus faecalis. It counts as cell-based. The note with it: Enterococcus faecalis, ATCC29212, read-out: MIC, SF.
The subject of assay [12] is H69PR human small cell lung cancer cell line. Description: MTT cytotoxicity, H69PR. It counts as cell-based. The note with it: 48 h, read-out: Anticancer activity IC50, H69PR.
Assay [13] deals with T1, DHFR (Homo sapiens, UniProt P00374).
T1 sequence (P00374 1-187): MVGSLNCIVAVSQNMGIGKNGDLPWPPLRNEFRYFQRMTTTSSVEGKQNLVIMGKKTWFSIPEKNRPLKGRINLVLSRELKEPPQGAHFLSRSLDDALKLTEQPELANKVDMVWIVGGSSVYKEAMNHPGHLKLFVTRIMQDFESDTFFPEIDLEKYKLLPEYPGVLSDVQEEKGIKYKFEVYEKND
The assay can be described thus: In vitro dihydrofolate reductase inhibition assay. Conditions: IC50 DHFR inhibitory activity, IC50 ± SEM. It counts as biochemical.

Assay [14] deals with bacterial strains (EC, PA, SF, SE, MSSA, MRSA) and fungi (CA, AN). The assay can be described thus: Microtitre broth dilution MIC, stated over several strains. It counts as cell-based. Conditions: Staphylococcus aureus, MRSA|MSSA, read-out: MIC against SE, SF, MSSA, and MRSA.
Assay [15] deals with VEGFR-2 (Homo sapiens, UniProt P35968). Description: In vitro VEGFR-2 kinase inhibition assay. It counts as biochemical.

In brackets after ≈: the same amount, converted by molar mass. Read-outs that look alike come from different tables or passages of the source.

Sequence of VEGFR-2 (P35968 20-1356): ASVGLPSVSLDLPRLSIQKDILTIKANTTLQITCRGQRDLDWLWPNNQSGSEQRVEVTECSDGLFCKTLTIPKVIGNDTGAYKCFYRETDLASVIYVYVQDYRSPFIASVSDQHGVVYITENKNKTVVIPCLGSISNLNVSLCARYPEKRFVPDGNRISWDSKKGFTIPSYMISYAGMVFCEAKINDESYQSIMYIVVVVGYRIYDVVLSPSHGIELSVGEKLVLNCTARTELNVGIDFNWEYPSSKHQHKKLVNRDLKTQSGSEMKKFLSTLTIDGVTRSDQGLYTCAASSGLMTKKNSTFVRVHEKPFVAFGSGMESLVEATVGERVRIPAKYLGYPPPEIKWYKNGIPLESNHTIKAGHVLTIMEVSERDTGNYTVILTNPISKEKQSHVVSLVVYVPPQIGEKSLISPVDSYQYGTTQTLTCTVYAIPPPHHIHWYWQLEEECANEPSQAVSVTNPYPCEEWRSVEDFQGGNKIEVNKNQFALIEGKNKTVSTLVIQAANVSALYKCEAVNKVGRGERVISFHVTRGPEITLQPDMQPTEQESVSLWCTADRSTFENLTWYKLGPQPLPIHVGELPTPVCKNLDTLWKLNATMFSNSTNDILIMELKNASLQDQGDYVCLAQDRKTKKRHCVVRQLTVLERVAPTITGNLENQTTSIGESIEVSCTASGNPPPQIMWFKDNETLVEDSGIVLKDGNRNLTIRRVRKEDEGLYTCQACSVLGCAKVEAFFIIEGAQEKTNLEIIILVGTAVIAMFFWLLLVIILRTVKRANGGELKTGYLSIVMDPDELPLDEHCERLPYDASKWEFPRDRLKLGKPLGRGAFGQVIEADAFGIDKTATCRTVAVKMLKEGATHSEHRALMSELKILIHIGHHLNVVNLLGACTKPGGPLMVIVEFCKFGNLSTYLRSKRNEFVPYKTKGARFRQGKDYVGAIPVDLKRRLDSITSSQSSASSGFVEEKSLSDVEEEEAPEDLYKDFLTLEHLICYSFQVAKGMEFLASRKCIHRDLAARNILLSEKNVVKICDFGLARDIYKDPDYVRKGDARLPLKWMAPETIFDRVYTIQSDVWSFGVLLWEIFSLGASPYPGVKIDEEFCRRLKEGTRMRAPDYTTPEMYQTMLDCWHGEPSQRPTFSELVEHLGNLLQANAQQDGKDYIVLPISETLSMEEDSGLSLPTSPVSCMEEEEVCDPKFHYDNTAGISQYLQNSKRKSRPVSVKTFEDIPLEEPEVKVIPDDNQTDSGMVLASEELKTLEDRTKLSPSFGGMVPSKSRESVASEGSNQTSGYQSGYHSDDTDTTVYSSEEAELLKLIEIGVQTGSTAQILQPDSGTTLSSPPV

For `COc1cc(OC)c2cc(C(=O)NCCCN3CCOCC3)cc(O)c2c1` [4a, 4-Hydroxy-6,8-dimethoxy-N-(3-morpholinopropyl)-2-naphthamide], the IC50 in assay [1] was 16.1 ± 2.42 µM; in assay [2] it was 23.8 ± 2.93 µM; in assay [3] it was 14.5 ± 2.02 µM; in assay [12], 52.2 ± 4.81 µM. The MIC in assay [4] (ATCC16404, read-out: MIC, AN) was determined as 256 µg/mL (≈ 684 µM); in [5], 64 µg/mL (≈ 171 µM); in [6] it was 128 µg/mL (≈ 342 µM); in assay [7] (ATCC10321, read-out: MIC, CA), 128 µg/mL (≈ 342 µM); in assay [8], 256 µg/mL (≈ 684 µM); in assay [9] it was 64 µg/mL (≈ 171 µM). In addition, the MIC in assay [10] and in [11] was 128 µg/mL (≈ 342 µM) throughout.
`COc1cc(OC)c2c(O)cc(C(=O)NCCCN3CCOCC3)cc2c1` [4b, 4-Hydroxy-5,7-dimethoxy-N-(3-morpholinopropyl)-2-naphthamide]: the IC50 amounted to 18.6 ± 1.84 µM in assay [1], 25.1 ± 3.23 µM in assay [2], 17.8 ± 2.46 µM in assay [3] and 53.7 ± 3.55 µM in assay [12]. Besides, the MIC in assay [4] (ATCC16404, read-out: MIC, AN) turned out to be 256 µg/mL (≈ 684 µM); in assay [5], 64 µg/mL (≈ 171 µM); in assay [6], 128 µg/mL (≈ 342 µM); in [7] (ATCC10321, read-out: MIC, CA), 64 µg/mL (≈ 171 µM); in assay [8], 256 µg/mL (≈ 684 µM); in [9] it was 64 µg/mL (≈ 171 µM). Further, the MIC in assay [10] and in [11] was 128 µg/mL (≈ 342 µM) throughout.
`COc1cc(OC)c2cc(C(=O)NCc3ccc(C)cc3)cc(O)c2c1` [5a, 4-Hydroxy-6,8-dimethoxy-N-(4-methylbenzyl)-2-naphthamide]: the IC50 stood at 10.3 ± 2.11 µM in assay [1], 9.21 ± 2.3 µM in [2], 13.6 ± 1.37 µM in [3] and 34.2 ± 5.64 µM in assay [12]. For the same molecule, the MIC came to 256 µg/mL (≈ 729 µM) in assay [4] (ATCC16404, read-out: MIC, AN); 64 µg/mL (≈ 182 µM) in assay [6]; 128 µg/mL (≈ 364 µM) in assay [7] (ATCC10321, read-out: MIC, CA); 128 µg/mL (≈ 364 µM) in [8]; 64 µg/mL (≈ 182 µM) in [9]; 64 µg/mL (≈ 182 µM) in assay [10]. The MIC in assay [11] amounted to 64 µg/mL (≈ 182 µM).
`COc1cc(OC)c2c(O)cc(C(=O)NCc3ccc(C)cc3)cc2c1` [5b, 4-Hydroxy-5,7-dimethoxy-N-(4-methylbenzyl)-2-naphthamide]: the IC50 in [13] worked out at 9.09 ± 0.511 µM; in [1] it was 6.75 ± 1.95 µM; in [2], 3.59 ± 1.04 µM; in assay [3] it was 8.38 ± 1.14 µM; in assay [15] (IC50 VEGFR-2 inhibitory activity, IC50 ± SEM), 0.623 ± 0.056 µM; in [12], 28.4 ± 3.7 µM. The MIC in assay [14] was 16 to 32 µg/mL (≈ 45.5 to 91.1 µM); in assay [4] (ATCC16404, read-out: MIC, AN), 256 µg/mL (≈ 729 µM); in assay [5], 16 µg/mL (≈ 45.5 µM); in assay [6], 64 µg/mL (≈ 182 µM); in [7] (ATCC10321, read-out: MIC, CA), 64 µg/mL (≈ 182 µM); in assay [8], 32 µg/mL (≈ 91.1 µM). Moreover, the MIC in assay [9] came out at 32 µg/mL (≈ 91.1 µM); in [10], 64 µg/mL (≈ 182 µM); in assay [11] it was 32 µg/mL (≈ 91.1 µM). For the same molecule, in assay [15] (times better on the VEGFR-2 receptor than the DHFR receptor), the “inhibitory activity on VEGFR-2 relative to DHFR” value is given as 15–20 times.
Consider `COc1ccc(CNC(=O)c2cc(O)c3cc(OC)cc(OC)c3c2)cc1` [6a, 4-Hydroxy-6,8-dimethoxy-N-(4-methoxybenzyl)-2-naphthamide], for which the 50% inhibitory concentration (IC50) was 15.9 ± 1.28 µM in assay [1], 14.4 ± 1.62 µM in [2], 17.4 ± 1.51 µM in [3] and 29.2 ± 2.65 µM in assay [12]. Besides, the MIC in [4] (ATCC16404, 72 h, read-out: MIC, AN) worked out at 256 µg/mL (≈ 697 µM); in assay [5], 32 µg/mL (≈ 87.1 µM); in [6] it was 64 µg/mL (≈ 174 µM); in [7] (ATCC10321, 72 h, read-out: MIC, CA), 256 µg/mL (≈ 697 µM); in assay [8], 128 µg/mL (≈ 348 µM); in assay [9] it was 64 µg/mL (≈ 174 µM). Also, the MIC in assay [10] and in [11] was 64 µg/mL (≈ 174 µM) each time.
In the case of `COc1ccc(CNC(=O)c2cc(O)c3c(OC)cc(OC)cc3c2)cc1` [6b, 4-Hydroxy-5,7-dimethoxy-N-(4-methoxybenzyl)-2-naphthamide], the IC50 in assay [1] came to 13.3 ± 2.69 µM; in assay [2], 12.3 ± 2.15 µM; in assay [3] it was 14 ± 1.4 µM; in assay [12], 28.5 ± 3.29 µM. Besides, the MIC amounted to 256 µg/mL (≈ 697 µM) in assay [4] (ATCC16404, read-out: MIC, AN); 32 µg/mL (≈ 87.1 µM) in assay [5]; 64 µg/mL (≈ 174 µM) in assay [6]; 64 µg/mL (≈ 174 µM) in assay [7] (ATCC10321, read-out: MIC, CA); 32 µg/mL (≈ 87.1 µM) in assay [8]; 32 µg/mL (≈ 87.1 µM) in assay [9]. Further, the MIC came out at 128 µg/mL (≈ 348 µM) in assay [10] and 32 µg/mL (≈ 87.1 µM) in [11].
As to `COc1cc(OC)c2cc(C(=O)NCc3ccc(Br)cc3)cc(O)c2c1` [7a, N-(4-bromobenzyl)-4-hydroxy-6,8-dimethoxy-2-naphthamide], the IC50 stood at 19.8 ± 1.59 µM in assay [1], 18.5 ± 1.73 µM in assay [2], 16.7 ± 1.68 µM in assay [3] and 23 ± 2.87 µM in assay [12]. For the same molecule, the MIC in assay [4] (ATCC16404, read-out: MIC, AN) turned out to be 256 µg/mL (≈ 615 µM); in assay [6] it was 64 µg/mL (≈ 154 µM); in assay [7] (ATCC10321, read-out: MIC, CA), 128 µg/mL (≈ 307 µM); in assay [8] it was 128 µg/mL (≈ 307 µM); in [9], 64 µg/mL (≈ 154 µM); in [10], 64 µg/mL (≈ 154 µM). In addition, the MIC in assay [11] was found to be 64 µg/mL (≈ 154 µM).

By IC50 is commonly meant the concentration that gives 50% inhibition.
